Experimental data reported in PubChem BioAssay AID179 (DTP/NCI, 2004).
pEC50, pIC50: −log10 of the molar value. “And” between values parts separate entries of the source, which are not always exact repeats. Equal entries are not always repeated. The source made the active and inactive calls.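 The calls were made as follows: active = compounds giving half or more protection of infected cells from virus-caused growth loss, again on retest; inactive = the rest.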

Tested on: CEM cells HIV-1 protection, formazan growth assay
Test: NCI AIDS Antiviral Assay
Details: for pIC50: measured here: growth of uninfected CEM cells
How it was run: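 Human CEM cells, uninfected and HIV-1-infected, received five drug concentrations, and growth was read by soluble formazan assay. Compounds giving at least 50% protection were retested; reproducible 100% protection defined confirmed active.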

| SMILES | pEC50 | pIC50 | outcome |
| --- | --- | --- | --- |
| CC(C)=C(OP1(=S)OCCN1C)C(C)(C)C(=O)N(C)C (centres undefined) | < 3.11 | 3.27 | – |
| O=C(CCC(=O)c1ccc(Cl)cc1)NO | < 3.70 | 3.91 | – |
| CC1CC/C(=C\c2ccc(Cl)cc2)C2OC(N)=C(C#N)C(c3ccc(Cl)cc3)=C12 (centres undefined) | – | – | inactive |
| CC(C(=O)O)[S+]1CCOCC1 (centres undefined) | 7.20 | < 3.70 | – |
| O=c1[nH]c(Nc2cccc(CO)c2)nc2nc[nH]c12 | < 3.70 | < 3.70 | – |
| Nn1c(-c2ccccc2)nc2ccc(Br)cc2c1=O | – | – | inactive |
| CCOC(=O)CC[C@H](NC(=O)c1[nH]cnc1/N=N/N(C)C)C(=O)OCC | < 3.17 | 3.47 | – |
| CC(=O)Nc1cc2c(s1)CCC1CC(=O)NN=C21 (centres undefined) | < 3.70 | < 3.70 | – |
| NC(=O)NCCC[C@H](NC(=O)[C@H](CS)NC(=O)[C@@H](N)Cc1cnc[nH]1)C(=O)N[C@H](Cc1ccccc1)C(=O)N[C@@H](Cc1c[nH]c2ccccc12)C(=O)N[C@@H](Cc1c[nH]c2ccccc12)C(N)=O | < 3.70 | < 3.70 | – |
| CC(=O)OC1CC2C(C)(C)CCC[C@]2(C)C2=C1C(O)=C(C(C)C)C(=O)C2=O (some centres undefined) | – | – | inactive |
| CN1C2C=CC1c1c(C3=NC(C)(C)CO3)cccc12 (centres undefined) | < 3.70 | < 3.70 | – |
| CCCC1C(=O)Nc2cccc3ncn(c23)C1=O (centres undefined) | < 3.70 | 3.73 | – |
| COC1OC2COc3ccccc3OC2C(NC(N)=S)C1OC (centres undefined) | < 3.88 | 4.38 | – |
| O=C(N/N=C\c1ccc([N+](=O)[O-])cc1)c1ccccc1Nc1ccccc1C(=O)N/N=C/c1ccc([N+](=O)[O-])cc1 | 4.04 | < 3.70 | – |
| Oc1ccc(N=C2CCC(=C(c3ccccc3)c3ccc(Nc4ccc(O)cc4)cc3)CC2)cc1 | < 3.70 | 4.68 | – |
| COc1cc2c(cc1O)[C@H](C)C(c1ccc(OC)c(OC)c1)O2 (some centres undefined) | < 3.67 | 4.98 | – |
| Cc1ccc(S(=O)(=O)n2oc(=O)c(-c3ccccc3)c2N)cc1 | < 3.70 | 4.26 | – |
| Oc1ccc(Cl)cc1C1=NC(/N=C\c2ccccc2)=NC(c2ccccc2)C1 (centres undefined) | < 3.70 | 5.05 | – |
| CCOC(=O)N1C2C=C(C)C(C3C(C)C(=O)N31)N(C(=O)c1ccccc1)O2 (centres undefined) | < 3.45 | < 3.45 | – |
| CC(C)(C)[Si](C)(C)OCC1OC(n2ccc(=O)[nH]c2=O)C(O[Si](C)(C)C(C)(C)C)C1C/C=[N+](/[O-])CC1OC(n2ccc(=O)[nH]c2=O)C(O[Si](C)(C)C(C)(C)C)C1O[Si](C)(C)C(C)(C)C (centres undefined) | < 4.00 | < 4.00 | – |
| C1CSC(=[N+]2CC[N+](=C3SCCS3)CC2)S1 | – | – | inactive |
| Nc1c(SSc2ccc3ccccc3c2N)ccc2ccccc12 | < 4.30 | 4.83 | – |

| SMILES | pEC50 | pIC50 | outcome |
| --- | --- | --- | --- |
| N#CC(N)(C(=O)CCC(=O)Nc1cccc(Cl)c1)c1ccc(Cl)cc1 (centres undefined) | < 3.18 | < 3.18 | – |
| CC[C@@]1(C(=O)OC)C=CCN2C(=O)OC(C)(C)C21 (some centres undefined) | – | – | inactive |
| CC(=O)OC12C3C4C1C1C2C3C41OC(C)=O (centres undefined) | < 3.70 | < 3.70 | – |
| CC1CC(c2ccc([N+](=O)[O-])cc2)=Nc2ccccc2S1 (centres undefined) | < 5.04 | < 5.04 | – |
| NC(N)=NS(=O)(=O)c1ccc(NNc2c3ccccc3nc3c(C(=O)Nc4ccc(S(=O)(=O)Nc5ncccn5)cc4)cccc23)cc1 | < 4.00 | 4.64 | – |
| C#CCN(Cc1ccc2nc(-c3ccccc3)c(Cl)nc2c1)c1ccc(F)cc1 | < 3.70 | 4.56 | – |
| O=C1CN(N2CCOCC2)CC(=O)N2CCCCN12 | 4.72 | < 3.70 | – |
| Cc1ccc(/C=C2\N=C(N3CCCC(CO)C3)NC2=O)cc1 (centres undefined) | < 3.70 | < 3.70 | – |
| CC1(C)C/C(=N/O)c2c(nc3ccc4ccccc4c3c2-c2ccc(Cl)cc2)C1 | < 4.00 | 4.43 | – |
| Nc1ccc(Nc2cc(=O)[nH]c(=O)[nH]2)cc1 | < 3.70 | < 3.70 | – |
| O=S(=O)(O)C(O)C(F)(F)C(F)(F)C(F)(F)F (centres undefined) | < 3.70 | < 3.70 | – |
| [Cu+2].[O-]/C(=N\N=C/c1cccc(F)c1)c1ccncc1.[O-]/C(=N\N=C\c1cccc(F)c1)c1ccncc1 | < 4.00 | 4.61 | – |
| N#CC(C#N)=Cc1c[nH]c2ccccc12 | – | – | inactive |
| Cc1ccc(S(=O)(=O)N(C)CC(=O)c2ccccc2)cc1 | < 3.93 | < 3.93 | – |
| CC1(C)Oc2cc3oc(=O)ccc3c3c2C2C1CCC(C)(O3)C2O (centres undefined) | < 3.12 | 3.50 | – |
| CC1CC(=O)Nc2cc(C(F)(F)F)ccc2N1 (centres undefined) | < 3.70 | < 3.70 | – |
| C=C(C)C#CC(O)(C(=O)OC1CCN(C)CC1)C(C)C (centres undefined) | < 3.70 | < 3.70 | – |
| O=C(O)CCCCCCCCCCCBr | 4.43 | 3.79 | – |
| CCOC(=O)c1sc2nc(SC)nc3c2c1N=CN3c1ccccc1Cl | < 4.00 | < 4.00 | – |
| OC1c2ccccc2C(O)c2c1ccc1c2CN(Cc2ccccc2)CC1 (centres undefined) | < 4.14 | 4.90 | – |
| O=C/C1=C/C2=Cc3ccccc3C=C(/C=C(/C=O)C1)C2 | < 4.00 | 4.36 | – |
| O=S(=O)(O)Cc1ccc([As](=O)(O)O)cc1 | < 3.70 | 3.89 | – |

| SMILES | pEC50 | pIC50 | outcome |
| --- | --- | --- | --- |
| CC1(C)CC(=O)c2c(nc3ccc4ccccc4c3c2-c2ccc(NC(=O)CCCC(=O)Nc3ccc(-c4c5c(nc6ccc7ccccc7c46)CC(C)(C)CC5=O)cc3)cc2)C1 | < 4.00 | < 4.00 | – |
| CCCN1CCC=C([Si](C)(C)C)C1 | – | – | inactive |
| CC(C)OCN1COCN=C1NC#N | < 3.35 | < 3.35 | – |
| Cc1ccc(C(=O)C(c2nc3n(c2O)C(=N)N=N3)c2nc3n(c2O)C(=N)N=N3)cc1 (centres undefined) | < 4.89 | < 4.89 | – |
| CCOC(=O)CCC(NC(=O)c1ccc(OCc2nc3cc(C(F)(F)F)ccc3nc2-c2ccccc2)cc1)C(=O)OCC (centres undefined) | < 3.70 | 4.56 | – |
| Clc1ccc(-c2nn3c(CCCCCCCCc4nnc5sc(-c6ccc(Cl)cc6)nn45)nnc3s2)cc1 | < 3.70 | 4.72 | – |
| COc1ccc(C[C@H](N)C(=O)N2C[C@H](CO)C[C@H](n3cnc4c(N(C)C)ncnc43)C2)cc1 | < 3.86 | 4.09 | – |
| OC1C(O)C2(C[C@H]1Br)OC(COCc1ccccc1)[C@@H](COCc1ccccc1)O2 (some centres undefined) | – | – | inactive |
| C[CH2][Pb]([CH2]C)([CH2]C)[O]C(=O)COc1ccc(Cl)cc1Cl | < 5.70 | 6.24 | – |
| COC(=O)[C@@H]1[C@H](O)[C@H](C)[C@H](O)[C@@](C)(O)/C=C\C=C(C)C(=O)Nc2c(C)c(OC(C)=O)c3c(c2O)C(=O)C(C)=C2OCOC(=C23)C(C)=C[C@@](C)(O)[C@H](O)[C@@H](C)[C@H]1OC(C)=O | < 3.52 | 4.77 and < 4.36 | – |
| CC(=O)Oc1c(-c2ccccc2)[nH]c2cc([N+](=O)[O-])c(/C(Cl)=C/c3ccccc3)cc12 | < 5.20 | < 5.20 | – |
| C=C1C(=O)OC2C1CC[C@H](C)C1(O)C(O)CC(=O)[C@@]21C (some centres undefined) | – | – | inactive |
| O=C(CCCN1CCC2(CC1)CC(c1ccccc1)OC2=O)c1ccc(F)cc1 (centres undefined) | < 3.70 | 4.05 | – |
| O=P1(Oc2ccc(Cl)cc2)OCCS1 (centres undefined) | < 3.70 | < 3.70 | – |
| CC(=O)N(O)c1ccc(Cl)cc1 | < 3.70 | < 3.70 | – |
| COc1ccc(CC(NC(=O)NSc2ccccc2)C(=O)NC2C(CO)OC(n3cnc4c(N(C)C)ncnc43)C2O)cc1 (centres undefined) | < 3.70 | 4.06 | – |
| Cc1ccc2oc(=O)c(C#N)c(/C=C/c3ccc(Cl)cc3)c2c1 | < 3.70 | < 3.70 | – |
| Cc1oncc1NC1=CC(=O)C(=O)c2ccccc21 | < 3.70 | 5.07 | – |
| Cc1cn(COCCCS(=O)c2ccccc2)c(=O)[nH]c1=O (centres undefined) | < 3.70 | < 3.70 | – |
| CCOP(=O)(CC(=O)NC(C(N)=O)C(C)C)OCC (centres undefined) | < 4.00 | 4.28 | – |
| CCOC(=O)C1Cc2ccc(C)cc2C1=O (centres undefined) | < 3.70 | 3.96 | – |
| Cc1ccc(NC(=O)CCc2nc(N)nc(N)c2-c2ccccc2)cc1C | < 3.16 | < 3.16 | – |

| SMILES | pEC50 | pIC50 | outcome |
| --- | --- | --- | --- |
| CC(C)CCN=c1cc2n(-c3ccc(Cl)cc3)c3ccccc3nc-2cc1Nc1ccc(Cl)cc1 | – | – | inactive |
| OC1CC(O)O[C@H](c2ccccc2)C1 (some centres undefined) | – | – | inactive |
| COC(=O)N1CC(=O)C(C(=O)NC23CC4CC(CC(C4)C2)C3)C1 (centres undefined) | < 3.11 | 3.85 | – |
| CC(=O)C1c2ccccc2C(C(C)=O)(c2ccccc2)C1c1ccccc1 (centres undefined) | < 3.70 | 4.42 | – |
| O=P(NC1CCCCC1)(NC1CCCCC1)NC1CCCCC1 | < 3.70 | < 3.70 | – |
| Cc1cccc(NC(=S)N/N=C(/c2ccccc2)c2ccccn2)c1 | < 6.70 | 7.03 | – |
| CC(CNCCCNCCNCCCNCO)[N+](=O)[O-] (centres undefined) | – | – | inactive |
| CN(C)CCCCC1c2ccccc2Sc2ccccc21 | < 3.70 | 5.06 | – |
| COc1cc2c([C@@H](OC(=O)c3ccccc3)c3ccc4c(c3)OCO4)nccc2c(OC)c1OC | – | – | inactive |
| Cc1ccc(-c2nc(SCC(=O)O)n[nH]2)cc1 | < 3.00 | 3.15 | – |
| C[Si](C)(C)c1ccc(CC2(Cc3ccc([Si](C)(C)C)cc3)CCNC2)cc1 | < 5.30 | < 5.30 | – |
| COS(=O)(=O)OC1(SC)C=C(c2ccccc2)SS1 (centres undefined) | < 3.70 | 3.97 | – |
| Cc1cccc(C)c1NC(=O)CCc1nnc2s/c(=C\c3ccc(N(C)C)cc3)c(=O)n12 | < 5.77 | < 5.77 | – |
| C[C@H]1C[C@H]2[C@@H]3CCC4=CC(=O)C=C[C@]4(C)C3=CC[C@]2(C)[C@@]1(O)C(=O)CO | 3.99 | 3.97 | – |
| COC1[C@H](NC(=O)OC(C)(C)C)C(=O)N1Cc1ccccc1 (some centres undefined) | – | – | inactive |
| O=C1/C(=C/c2cccc([N+](=O)[O-])c2)SC(=S)N1C1CC1 | < 4.49 | < 4.49 | – |
| COc1cc2c3c(c1)SCC(=O)N3CCN2 | < 3.70 | < 4.00 | – |
| CCC(=O)NC(Nc1cc(C)on1)(C(F)(F)F)C(F)(F)F | < 3.70 | < 3.70 | – |
| OC(Cc1cccc2ccccc12)CN1CCC(c2ccccc2)CC1 (centres undefined) | < 4.03 | 4.54 | – |
| O=c1nc2[nH]nc(-c3ccccc3)c2n[nH]1 | – | – | inactive |
| CN(C)c1ccc(/C=C2\Cc3ccccc3C2=O)cc1 | < 4.84 | < 4.84 | – |
